Where only a bound is given, the exact number is not on record here.

For 60 compounds, pest or weed control results are on record in US11225470B2, “Tetrazolinone compounds and its use as pest control agents” (SUMITOMO CHEMICAL COMPANY, LIMITED, priority 2016, dated 2022).

Test [1] deals with cabbage moth (Plutella xylostella). In words: cabbage moth mortality test on cabbage seedling. The class given is in vivo. The note with it: 120 h, 500 ppm spray on cabbage seedling, five second instar larvae, counted after 5 days, read-out: Morality (%). From the text:
Any of the present compounds 1-4, 1-5, 1-6, 3-9, 3-13, 3-17, 3-23, 3-25, 3-26, 3-29, 3-31, 4-1 or 5-3, each of which was made to a formulation according to the similar method to that of Formulation Example 6, was mixed with water so as to be 500 ppm. The mixtures were sprayed to foliar parts of the cabbage seedling (on the developmental stage of the second to third true leaf) that was planted in a container so as to adhere adequately on the leaves of the above-mentioned cabbage. After the spraying, the stem and leaf of the seedling was cut out and then was installed into the container that was covered with the filter paper. Five heads of cabbage moth (Plutella xylostella) at the second instar larval stages were released into the cup. After 5 days, the surviving insects were counted, and the mortality of insects was calculated by the following equation. Morality (%)={1−the number of the surviving insects/5}×100

For test [2], the system named is cotton aphid (Aphis gossypii). As to the kind of experiment: cotton aphid test on cucumber seedling. The class given is in vivo. The note with it: 144 h, 500 ppm spray on infested cucumber seedling, counted after 6 days, read-out: Controlling value (%).

Take `CCC(=NN=C1CCCc2ccccc21)OCc1c(C)cccc1-n1nnn(C)c1=O` [E-25]: the figures for the pest or weed control at 500 ppm in test [1] and in test [2] were at least 80% and at least 60%, respectively.

Take `CCC(=NN=C(C)C(C)=NOCC#N)OCc1c(C)cccc1-n1nnn(C)c1=O` [C-13]: the pest or weed control at 500 ppm in test [1] was at least 80%.

On to `CCC(=NN=C(C)c1cnc2ccccc2c1)OCc1c(C)cccc1-n1nnn(C)c1=O` [D-5], for which the pest or weed control at 500 ppm in test [1] is at least 80%; in test [2], at least 60%. For `CCC(=NN=C1CCOc2ccccc21)OCc1c(Cl)cccc1-n1nnn(C)c1=O` [E-13], the pest or weed control at 500 ppm in test [1] was at least 80%. As for `CCC(=NN=C(C)C(C)=NOCc1cccc(C)c1)OCc1c(C)cccc1-n1nnn(C)c1=O` [C-11], the results for the pest or weed control at 500 ppm in test [1] and in test [2] were at least 80% and at least 60%, respectively. Regarding `CCC(=NN=C(C)C(C)=NOC(C)C)OCc1c(C)cccc1-n1nnn(C)c1=O` [A-3], the pest or weed control at 500 ppm in test [1] was at least 80%; in test [2], at least 60%. Take `CCON=C(C)C(C)=NN=C(CC)OCc1c(C)cccc1-n1nnn(C)c1=O` [A-2]: in test [2], the pest or weed control at 500 ppm is at least 60%.

Consider `C=CCON=C(C)C(C)=NN=C(CC)OCc1c(C)cccc1-n1nnn(C)c1=O` [C-2], for which the pest or weed control at 500 ppm in test [1] was at least 80%; in test [2], at least 60%.

For the compound `CCC(=NN=C(C)c1cc2ccccc2n1C)OCc1c(C)cccc1-n1nnn(C)c1=O` [D-6], in test [2], the pest or weed control at 500 ppm was at least 60%. For `CCC(=NN=C(C)C(C)=NOCc1ccc(OC)cc1)OCc1c(C)cccc1-n1nnn(C)c1=O` [C-12], the pest or weed control at 500 ppm in test [1] is at least 80%; in test [2], at least 60%. In the case of `CSC(=NCC1CCOCC1)SCc1c(C)cccc1-n1nnn(C)c1=O` [3-23], the pest or weed control at 500 ppm in test [1] was at least 80%. As to `CCC(=NN=C(C)c1cc2ccccc2o1)OCc1c(C)cccc1-n1nnn(C)c1=O` [1-2], in test [2], the pest or weed control at 500 ppm is at least 60%. On to `CCC(=NN=C(C)C(C)=NOCCOC)OCc1c(C)cccc1-n1nnn(C)c1=O` [C-14], for which the values for the pest or weed control at 500 ppm in test [1] and in test [2] were at least 80% and at least 60%, respectively. On to `CCC(=NN=C(C)c1cnccn1)OCc1c(C)cccc1-n1nnn(C)c1=O` [1-4], for which the pest or weed control at 500 ppm is at least 80% in test [1] and at least 60% in test [2]. Regarding `COc1ccccc1CN=C(SC)SCc1c(C)cccc1-n1nnn(C)c1=O` [3-13], the pest or weed control at 500 ppm in test [1] was at least 80%.

Turning to `CCC(=NN=C1CCOc2cc(F)cc(F)c21)OCc1c(C)cccc1-n1nnn(C)c1=O` [E-24], the pest or weed control at 500 ppm in test [1] was at least 80%; in test [2], at least 60%.

`CSC(=NCc1cccc(C)c1)SCc1c(C)cccc1-n1nnn(C)c1=O` [3-11]: the pest or weed control at 500 ppm in test [2] is at least 60%. Turning to `CCC(=NN=C1CCOc2ccccc21)OCc1c(C2CC2)cccc1-n1nnn(C)c1=O` [E-14], the pest or weed control at 500 ppm in test [1] was at least 80%; in test [2], at least 60%. As to `CSC(=Nc1ccc(F)cc1)SCc1c(C)cccc1-n1nnn(C)c1=O` [4-6], the pest or weed control at 500 ppm in test [2] was at least 60%. Regarding `CCC(=NN=C1CCOc2ccc(C)cc21)OCc1c(C)cccc1-n1nnn(C)c1=O` [E-26], the pest or weed control at 500 ppm in test [1] is at least 80%; in test [2], at least 60%.

On to `CSC(=NC(C)(C)C)SCc1c(C)cccc1-n1nnn(C)c1=O` [3-17], for which, in test [1], the pest or weed control at 500 ppm is at least 80%. For `CSC(=NCCCCc1ccccc1)SCc1c(C)cccc1-n1nnn(C)c1=O` [3-29], the figures for the pest or weed control at 500 ppm in test [1] and in test [2] were at least 80% and at least 60%, respectively. `CCC(=NN=C(C)c1ccc2c(ccn2C)c1)OCc1c(C)cccc1-n1nnn(C)c1=O` [D-7]: in test [2], the pest or weed control at 500 ppm was at least 60%. `C#CCON=C(C)C(C)=NN=C(CC)OCc1c(C)cccc1-n1nnn(C)c1=O` [C-5]: the pest or weed control at 500 ppm in test [1] is at least 80%. Still for that read-out and setting: the value for `CCC(=NN=C(C)c1nc2ccccc2s1)OCc1c(C)cccc1-n1nnn(C)c1=O` [1-5] was at least 80%.

As for `CCc1ccc(N=C(SC)SCc2c(C)cccc2-n2nnn(C)c2=O)cc1` [3-8], the pest or weed control at 500 ppm in test [2] is at least 60%.

As to `CCC(=NN=C1CCc2ccc(OC)cc21)OCc1c(C)cccc1-n1nnn(C)c1=O` [E-8], the pest or weed control at 500 ppm in test [2] was at least 60%. On to `CCC(=NN=C1CC[S+]([O-])c2ccccc21)OCc1c(C)cccc1-n1nnn(C)c1=O` (stereo not shown) [E-29], for which the results for the pest or weed control at 500 ppm in test [1] and in test [2] were at least 80% and at least 60%, respectively. Turning to `CCC(=NN=C1CCc2cc(F)ccc21)OCc1c(C)cccc1-n1nnn(C)c1=O` [E-3], the pest or weed control at 500 ppm in test [2] is at least 60%. As to `CCC(=NN=C1CCc2c(F)cccc21)OCc1c(C)cccc1-n1nnn(C)c1=O` [E-2], the pest or weed control at 500 ppm in test [2] was at least 60%. Turning to `CCC(=NN=C(C)c1c(C)nn(C)c1Cl)OCc1c(C)cccc1-n1nnn(C)c1=O` [D-1], the values for the pest or weed control at 500 ppm in test [1] and in test [2] were at least 80% and at least 60%, respectively.

In the case of `CCC(=NN=C(C)c1ccc2scnc2c1)OCc1c(C)cccc1-n1nnn(C)c1=O` [D-3], the values for the pest or weed control at 500 ppm in test [1] and in test [2] were at least 80% and at least 60%, respectively.

For the compound `CCC(=NN=C(C)C(C)=NOCc1ccccc1)OCc1c(C)cccc1-n1nnn(C)c1=O` [C-1], the pest or weed control at 500 ppm was at least 80% in test [1] and at least 60% in test [2]. `CCSC(=NCCc1ccccc1)SCc1c(C)cccc1-n1nnn(C)c1=O` [3-1]: the pest or weed control at 500 ppm in test [2] is at least 60%. In the case of `CCC(=NN=C1COc2ccccc21)OCc1c(C)cccc1-n1nnn(C)c1=O` [E-10], the pest or weed control at 500 ppm in test [2] is at least 60%. Regarding `CSC(=NCCc1cccc(F)c1)SCc1c(C)cccc1-n1nnn(C)c1=O` [3-26], in test [1], the pest or weed control at 500 ppm was at least 80%. As to `CCC(=NN=C1CCSc2ccccc21)OCc1c(C)cccc1-n1nnn(C)c1=O` [E-28], the pest or weed control at 500 ppm is at least 80% in test [1] and at least 60% in test [2]. Turning to `CCC(=NN=C1CCc2cccc(F)c21)OCc1c(C)cccc1-n1nnn(C)c1=O` [E-5], in test [1], the pest or weed control at 500 ppm is at least 80%.

Take `CCC(=NN=C(C)C(C)=NOCc1ccccc1C)OCc1c(C)cccc1-n1nnn(C)c1=O` [C-7]: the pest or weed control at 500 ppm in test [2] is at least 60%. Consider `CCC(=NN=C(C)c1ccc2c(c1)CCO2)OCc1c(C)cccc1-n1nnn(C)c1=O` [D-2], for which the pest or weed control at 500 ppm in test [1] is at least 80%; in test [2] it was at least 60%. As for `CCC(=NN=C1CCOc2cccc(F)c21)OCc1c(C)cccc1-n1nnn(C)c1=O` [E-21], the pest or weed control at 500 ppm in test [1] was at least 80%. Consider `CC(=NN=C(OCc1c(C)cccc1-n1nnn(C)c1=O)N(C)C)c1ccc(F)cc1` [1-6], for which, in test [1], the pest or weed control at 500 ppm was at least 80%. Consider `CCC(=NN=C1CCOc2ccccc21)OCc1c(C)cccc1-n1nnn(C)c1=O` [E-11], for which, in test [2], the pest or weed control at 500 ppm is at least 60%.

In the case of `CCC(=NN=C(C)c1ccc2c(c1)OCO2)OCc1c(C)cccc1-n1nnn(C)c1=O` [D-8], the pest or weed control at 500 ppm was at least 80% in test [1] and at least 60% in test [2]. Take `CCC(=NN=C(C)C(C)=NO)OCc1c(C)cccc1-n1nnn(C)c1=O` [B-1]: the pest or weed control at 500 ppm in test [1] is at least 80%. In the case of `CCC(=NN=C1CCOc2cc(OC)ccc21)OCc1c(C)cccc1-n1nnn(C)c1=O` [E-30], the pest or weed control at 500 ppm in test [1] is at least 80%; in test [2], at least 60%. For the compound `CC=CCON=C(C)C(C)=NN=C(CC)OCc1c(C)cccc1-n1nnn(C)c1=O` [C-3], the results for the pest or weed control at 500 ppm in test [1] and in test [2] were at least 80% and at least 60%, respectively. For `CCC(=NN=C1CCOc2ccccc21)OCc1c(OC)cccc1-n1nnn(C)c1=O` [E-12], the pest or weed control at 500 ppm in test [1] was at least 80%; in test [2], at least 60%. Take `CCC(=NN=C(C)c1ccn(C)n1)OCc1c(C)cccc1-n1nnn(C)c1=O` [D-19]: the pest or weed control at 500 ppm in test [1] is at least 80%. `CSC(=Nc1cccc(C(F)(F)F)c1)SCc1c(C)cccc1-n1nnn(C)c1=O` [4-1]: the pest or weed control at 500 ppm in test [1] was at least 80%. As for `CCC(=NN=C1CCc2ccc(F)cc21)OCc1c(C)cccc1-n1nnn(C)c1=O` [E-4], the pest or weed control at 500 ppm in test [2] is at least 60%. Regarding `CCC(=NN=C(C)c1cc2ccccc2s1)OCc1c(C)cccc1-n1nnn(C)c1=O` [1-3], the pest or weed control at 500 ppm in test [2] was at least 60%.

As for `CSC(=NCCc1ccccc1Cl)SCc1c(C)cccc1-n1nnn(C)c1=O` [3-31], the pest or weed control at 500 ppm in test [1] is at least 80%. On to `CSC(=NCCc1ccccc1F)SCc1c(C)cccc1-n1nnn(C)c1=O` [3-25], for which the pest or weed control at 500 ppm in test [1] was at least 80%. For `CC(=NOCc1c(C)cccc1-n1nnn(C)c1=O)OCCCc1ccccc1` [5-3], the pest or weed control at 500 ppm is at least 80% in test [1] and at least 60% in test [2].

Regarding `CCC(=NN=C1CCOc2c(F)ccc(F)c21)OCc1c(C)cccc1-n1nnn(C)c1=O` [E-27], the results for the pest or weed control at 500 ppm in test [1] and in test [2] were at least 80% and at least 60%, respectively. As to `CSC(=NCc1ccc(C)cc1)SCc1c(C)cccc1-n1nnn(C)c1=O` [3-12], the pest or weed control at 500 ppm in test [2] was at least 60%. For `CCC(=NN=C(C)c1cccc2c1OC(F)(F)O2)OCc1c(C)cccc1-n1nnn(C)c1=O` [D-9], the pest or weed control at 500 ppm in test [2] was at least 60%. For the compound `CSC(=NCc1ccccc1)SCc1c(C)cccc1-n1nnn(C)c1=O` [3-9], in test [1], the pest or weed control at 500 ppm was at least 80%.

Consider `CCC(=NN=C(C)C(C)=NOCc1cccc(OC)c1)OCc1c(C)cccc1-n1nnn(C)c1=O` [C-10], for which the pest or weed control at 500 ppm was at least 80% in test [1] and at least 60% in test [2].
